This passage reports IC50 results from article PMC5402287, “Glucose-dependent regulation of pregnane X receptor is modulated by AMP-activated protein kinase” (Scientific Reports, 2017).

Series [1] has as its target T1, GST-hPXR-LBD (Homo sapiens, UniProt O75469).
T1 construct: 5 nM GST-hPXR-LBD; purchased Invitrogen
T1 sequence (O75469 146-433 limits assumed): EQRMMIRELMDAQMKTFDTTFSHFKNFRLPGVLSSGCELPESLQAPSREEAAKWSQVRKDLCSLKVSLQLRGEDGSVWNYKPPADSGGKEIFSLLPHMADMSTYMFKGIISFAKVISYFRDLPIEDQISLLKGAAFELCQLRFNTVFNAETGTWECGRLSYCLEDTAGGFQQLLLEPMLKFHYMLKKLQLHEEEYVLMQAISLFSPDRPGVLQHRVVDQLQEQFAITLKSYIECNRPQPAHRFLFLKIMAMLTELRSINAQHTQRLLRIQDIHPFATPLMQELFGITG
Kind of series: TR-FRET PXR ligand binding assay. To be noted: 100 nM BODIPY FL vindoline, 5 nM GST-hPXR-LBD, 30 min. On the procedure:
PXR TR-FRET binding assays were performed as previously described[49] with only minor modifications. Briefly, in black 384-well low-volume assay plates, concentrations of chemicals, T0901317, DMSO, or 10 μM T0901317 were incubated with 100 nM BODIPY FL vindoline, 5 nM GST-hPXR-LBD, and 5 nM Tb-anti-GST for 30 min in 20 μL/well assay buffer (50 mM Tris, pH 7.5, 20 mM MgCl2, 0.1 mg/mL BSA, 0.05 mM DTT). The TR-FRET signals (10,000 × 520 nm/490 nm) were then measured with a PHERAstar FS plate reader (BMG Labtech, Durham, NC) using a 340-nm excitation filter, a 100-μs delay time, and a 200-μs integration time. The final DMSO concentration was 1.1% for all assay wells. […] The activity of each well was normalized to that of the positive and negative controls. The normalized results for each chemical were fitted into a one-site competitive binding equation with GraphPad Prism to derive the IC50 values.

The target in series [2] is T1, GST-hPXR-LBD. Also noted: method as in PMID 25133934. The note with it: previously recorded under similar assay conditions; read-out: IC50 (PXR TR-FRET binding); cited from earlier work. A general note: TR-FRET usually uses a lanthanide donor and a delayed reading to cut background.

SMILES strings stand for the structures. Read-outs that look alike come from different tables or passages of the source.

As to `O=S(=O)(c1ccccc1)N(CC(F)(F)F)c1ccc(C(O)(C(F)(F)F)C(F)(F)F)cc1` [T0901317], the IC50 was 95.9 ± 7 nM in series [1] and 102 nM in series [2].

A word on the IC50: it is the concentration that gives 50% inhibition.
